Legend:
[1] = parameters: method as in Diasio and Harris, 1989; conditions: parenteral administration of 5-FU; approximately; ref Diasio and Harris, 1989; cited from earlier work
[2] = Single-dose, two-cycle crossover PK/bioequivalence trial of S-1 capsules, fasting; type: in vivo, Chinese cancer patients; conditions: human, plasma, oral, 100 mg; fasting conditions
Excerpt: This study, a multicenter, randomized, open-label, single-dose, two-cycle crossover investigation, was distinctly divided into fasting and fed trials. Each subject received either the test or reference formulation in a separate cycle. Each cycle consisted of a 4-day inpatient phase, followed by a 7-day washout period between cycles to ensure that any residual effects from the previous formulation had fully dissipated before the initiation of the next cycle. To avoid the residual effects of fasting or feeding that could influence the results, the fasting and fed trials each enrolled 60 subjects. Subjects were randomly allocated to one of the two treatment sequences, namely, test-reference or reference-test, in a 1:1 ratio. All eligible subjects were admitted to the clinical ward 1 day prior to drug administration, adhering to a minimum fasting period of 10 h before drug intake. In the fasting trial, subjects were required to fast. Subsequently, they ingested a single dose comprising two capsules (50 mg each) of either the test or reference formulation, accompanied by 240 mL of warm water. […]
OXO was determined in blood, which was performed under the following conditions: the aqueous solution containing 5 mM ammonium acetate (mobile phase A) and acetonitrile (mobile phase B). […]

Tmax [2] [h] | Compound | half-life [1] [min]
– | O=c1[nH]cc(F)c(=O)[nH]1 [5-FU, 5-fluorouracil] | 8 to 20
~1 | Oc1cc(O)c(Cl)cn1 [CDHP, gimeracil] | –

From paper PMC11879792 (Frontiers in Pharmacology, 2025)
